Usually GI50 stands for the concentration at which growth is held to half of that of the control.

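Where inhibition never reached the appropriate level, the endpoint shown equals the highest concentration tested. Otherwise, values were interpolated linearly from a five-concentration, 48-hour dose response in 96-well plates. The concentration for 50% growth inhibition is given as GI50.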 Active and inactive are the calls of the source. No stated cut-off is given here; in the data, active = GI50 up to about 1.1 µM and inactive = higher.

Experimental findings from ChEMBL document CHEMBL1201862, “PubChem BioAssay data set” (2004) are described below.

What all share (assay): DTP human tumour cell line panel, 48 h
Assay [1] deals with CAKI-1.
The subject of assay [2] is SN12C.
In assay [3] the test system is MDA-MB-231.
The subject of assay [4] is Hs-578T.
The test system of assay [5] is HT-29.
The test system of assay [6] is OVCAR-5.
For assay [7], the system named is RXF 393.
Assay [8] deals with UACC-257.
In assay [9] the test system is MDA-MB-435.
Assay [10] deals with A549.
For assay [11], the system named is HL-60.
Assay [12] deals with OVCAR-8.
For assay [13], the system named is 786-0.
Assay [14] relates to RPMI-8226.
Assay [15] concerns TK-10.
The test system of assay [16] is T47D.
Assay [17] relates to NCI-H460.
Assay [18] concerns HCT-116.
Assay [19] deals with PC-3.
Assay [20] deals with NCI/ADR-RES.

For the molecule `COc1ccccc1/C=C/c1c(N)ncnc1Nc1cccc(Cl)c1`, the GI50 in assay [1] was 20.9 µM (inactive); in [2], 13.5 µM (inactive); in assay [3], 17.7 µM (inactive); in [4] it was 16.9 µM (inactive); in [5], 17.7 µM (inactive); in [6], 31.8 µM (inactive). Also, the GI50 in assay [7] was 16 µM (inactive); in assay [8], 19.3 µM (inactive); in assay [9], 16.7 µM (inactive); in assay [10], 14.6 µM (inactive); in [11] it was 0.282 µM (active); in [12], 25.4 µM (inactive). The GI50 in assay [13] is 11.9 µM (inactive); in assay [14], 0.318 µM (active); in [15], 14.5 µM (inactive); in [16] it was 40.4 µM (inactive); in assay [17] it was 20.7 µM (inactive); in [18], 23.5 µM (inactive). Moreover, in assay [19], the GI50 is 0.164 µM (active).

In the case of `COC(=O)[C@@H](O)[C@]1(C(=O)OC)C2O[C@@H](OC)[C@@H]1CCCCCC[C@H]2O`, the GI50 in assay [1], in assay [2], in assay [3], in assay [4], in assay [5] and in assay [6] was > 100 µM (inactive) each time. The GI50 in [7], in assay [8], in [9], in [20], in assay [10] and in assay [12] was > 100 µM (inactive) in each case. Also, the GI50 in assay [13], in assay [14], in [15], in assay [17], in assay [18] and in assay [19] was > 100 µM (inactive) each time.

`Cn1c(=O)oc2cc(C(O)CN3CCN(Cc4ccc5c(c4)OCO5)CC3)ccc21` (stereo unspecified): the GI50 in assay [1], in [2], in assay [3], in assay [5], in [6] and in [7] was > 100 µM (inactive) each time. In addition, the GI50 in assay [8], in assay [9], in assay [20], in assay [10], in [11] and in assay [12] was > 100 µM (inactive) in each case. In addition, the GI50 in [13], in [15], in assay [16], in assay [17], in assay [18] and in assay [19] was > 100 µM (inactive) in each case.

Turning to `COc1cccc2c1[C@H]1CO[C@H]3C4C[C@H](C(=O)O)C([C@@H](C2)N13)N4C` (stereo partly specified), the GI50 is 1.99 µM (inactive) in [2]; 0.205 µM (active) in [3]; 0.0769 µM (active) in assay [4]; 2.13 µM (inactive) in assay [5]; 2.37 µM (inactive) in assay [6]; 1.19 µM (inactive) in assay [7]. The GI50 in [8] was 1.91 µM (inactive); in assay [9], 0.0533 µM (active); in assay [20] it was 0.764 µM (active); in [10], 8.18 µM (inactive); in [11], 1.62 µM (inactive); in assay [13], 1.3 µM (inactive). Moreover, the GI50 was 3.28 µM (inactive) in assay [15], 0.242 µM (active) in assay [16], 3.93 µM (inactive) in assay [17] and 2.53 µM (inactive) in assay [18].

On to `O=C1c2ccccc2C(=O)N1CCc1ncc[nH]1`, for which the GI50 in assay [1], in assay [2], in assay [4], in [5], in assay [6] and in [8] was > 100 µM (inactive) each time. The GI50 in [9], in [20], in assay [10], in assay [12], in assay [13] and in assay [14] was > 100 µM (inactive) throughout. The GI50 in assay [15], in assay [16], in assay [17], in [18] and in assay [19] was > 100 µM (inactive) throughout.

On to `CC(C)C(=O)OCC1CCCN2CCCCC12` (stereo unspecified), for which the GI50 is > 100 µM (inactive) in assay [1]; > 100 µM (inactive) in [2]; 45.4 µM (inactive) in assay [3]; > 100 µM (inactive) in [4]; 30.5 µM (inactive) in assay [5]; > 100 µM (inactive) in assay [6]. The GI50 in assay [7] was > 100 µM (inactive); in assay [8] it was > 100 µM (inactive); in assay [9], > 100 µM (inactive); in assay [20], > 100 µM (inactive); in assay [10], 74 µM (inactive); in [11], 39.8 µM (inactive). Also, the GI50 in [12] was > 100 µM (inactive); in assay [13], 64.4 µM (inactive); in [14], 95.3 µM (inactive); in assay [15], > 100 µM (inactive); in assay [17], 38.7 µM (inactive); in [18] it was 57.5 µM (inactive). For the same molecule, the GI50 in [19] was 79.4 µM (inactive).

As for `c1ccc2[nH]c3nc4ccccc4c-3cc2c1`, the GI50 in assay [1] was 0.524 µM (active); in [2] it was 0.63 µM (active); in [3] it was 1.24 µM (inactive); in [4] it was 0.966 µM (active); in [5], < 0.0303 µM (active); in assay [6] it was 1.69 µM (inactive). Also, the GI50 in [7] was 0.457 µM (active); in assay [8], 0.637 µM (active); in assay [9], 0.54 µM (active); in assay [20] it was 1.28 µM (inactive); in assay [10], 0.245 µM (active); in assay [11] it was 0.192 µM (active). For the same molecule, the concentration for 50% growth inhibition (GI50) in assay [12] was 0.363 µM (active); in assay [13], 0.0199 µM (active); in [14], 0.327 µM (active); in [15], 1.54 µM (inactive); in assay [17], 0.128 µM (active); in assay [18], < 0.0311 µM (active). Further, the 50% growth inhibitory concentration (GI50) in assay [19] was 0.232 µM (active).

As to `CCN(CC)CCCC(C)Nc1ccnc2cc(Cl)ccc12` (stereo unspecified) [CHLOROQUINE PHOSPHATE], the GI50 in assay [1] was 20.8 µM (inactive); in [2] it was 34.9 µM (inactive); in assay [3], 15.8 µM (inactive); in assay [5], 17.5 µM (inactive); in assay [6], 25.1 µM (inactive); in assay [7], 2.4 µM (inactive). In addition, the GI50 was 23.1 µM (inactive) in assay [8]; 16.4 µM (inactive) in assay [9]; 42.1 µM (inactive) in assay [20]; 39.5 µM (inactive) in assay [10]; 13.3 µM (inactive) in assay [11]; 33.4 µM (inactive) in assay [12]. Also, the GI50 in [13] was 11.7 µM (inactive); in assay [14], 19.5 µM (inactive); in assay [15], 37.3 µM (inactive); in [16] it was 28.1 µM (inactive); in [17] it was 18 µM (inactive); in assay [18] it was 12 µM (inactive). For the same molecule, in assay [19], the GI50 is 19 µM (inactive).

As to `CC(C)(C)C(=O)O[C@H]1C=C[C@@H](O)[C@@H]2[C@H]1[C@@H]1C=C[C@H]2C1`, the GI50 is 71 µM (inactive) in assay [1]; 16.6 µM (inactive) in assay [2]; 19.2 µM (inactive) in assay [3]; > 100 µM (inactive) in [4]; 1.96 µM (inactive) in assay [6]; 6.52 µM (inactive) in assay [8]. Besides, the GI50 in assay [20] was 20.2 µM (inactive); in [10] it was 30 µM (inactive); in assay [11], 4.15 µM (inactive); in assay [12], 19 µM (inactive); in assay [13], 48.5 µM (inactive); in [14], 17.1 µM (inactive). Besides, the GI50 was 26.4 µM (inactive) in [15], 24.8 µM (inactive) in assay [16], 53.8 µM (inactive) in assay [17] and 29.6 µM (inactive) in assay [18].

`COc1ccc(/C=C2\C[C@H]3[C@@H]4CC=C5C[C@@H](OC(C)=O)CC[C@]5(C)[C@H]4CC[C@]3(C)\C2=N\O)cc1OC`: the GI50 was 11.2 µM (inactive) in [1]; 15.4 µM (inactive) in assay [2]; > 100 µM (inactive) in assay [4]; 5.74 µM (inactive) in assay [5]; 33.9 µM (inactive) in [6]; 7.4 µM (inactive) in [7]. The GI50 in assay [8] is 14.9 µM (inactive); in assay [9] it was 20.7 µM (inactive); in assay [20], 53.5 µM (inactive); in assay [10] it was 5.12 µM (inactive); in assay [11], 5.57 µM (inactive); in assay [12], 5.71 µM (inactive). Moreover, the GI50 in assay [13] is 8.87 µM (inactive); in [14], 4.86 µM (inactive); in [16], 5.38 µM (inactive); in assay [17], 7.03 µM (inactive); in [18] it was 8.05 µM (inactive); in [19], 18.8 µM (inactive).

Take `CNc1cc([N+](=O)[O-])ccc1C(=O)N1CCC[C@H]1CO`: the GI50 in assay [2], in assay [3], in [5], in [6], in assay [8] and in assay [9] was > 100 µM (inactive) each time. In addition, the GI50 in assay [20], in assay [10], in assay [11], in assay [12], in assay [13] and in assay [14] was > 100 µM (inactive) each time. The GI50 in assay [15], in assay [16], in [17], in assay [18] and in assay [19] was > 100 µM (inactive) throughout.
